Experimental data as given in patent US12370235B2, “Synthetic, non-natural antimicrobial peptides inspired by Staphylococcus auricularis delta toxin” (University of Saskatchewan, priority 2021, dated 2025).
Ends that are not written are not given here.

Experiments:
S. aureus ATCC 29213 = assay: MIC, broth dilution; type: cell-based, Staphylococcus aureus; conditions: Table 5; STIP3 variants, highest concentration 100 μg/mL
In short: (§1)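 MIC defined as the lowest peptide level giving no growth after overnight standing incubation at 37° C. Bacteria at OD 6×10^−4 in cation-adjusted MH broth met 2-fold serial peptide dilutions; peptide purity 95%.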

[1] = system: S. aureus ATCC 33592 (MRSA SCCmec type III); assay: MIC, broth dilution; type: cell-based, Staphylococcus aureus; conditions: Table 5; STIP3 variants, highest concentration 100 μg/mL
In short: as §1

[2] = system: S. aureus ATCC BAA-1683 (MRSA SCCmec type IV); assay: MIC, broth dilution; type: cell-based, Staphylococcus aureus; conditions: Table 5; STIP3 variants, highest concentration 100 μg/mL
In short: as §1

[3] = system: S. aureus ATCC BAA-2094 (MRSA SCCmec type V); assay: MIC, broth dilution; type: cell-based, Staphylococcus aureus; conditions: Table 5; STIP3 variants, highest concentration 100 μg/mL
In short: as §1

[4] = system: S. aureus ATCC BAA-2313 (MRSA SCCmec type XI); assay: MIC, broth dilution; type: cell-based, Staphylococcus aureus; conditions: Table 5; STIP3 variants, highest concentration 100 μg/mL
In short: as §1

[5] = system: S. aureus ATCC BAA-41 (MRSA SCCmec type II); assay: MIC, broth dilution; type: cell-based, Staphylococcus aureus; conditions: Table 5; STIP3 variants, highest concentration 100 μg/mL
In short: as §1

[6] = system: S. aureus ATCC BAA-42 (MRSA SCCmec type VI); assay: MIC, broth dilution; type: cell-based, Staphylococcus aureus; conditions: Table 5; STIP3 variants, highest concentration 100 μg/mL
In short: as §1

[7] = system: S. aureus ATCC BAA-44 (MRSA SCCmec type I); assay: MIC, broth dilution; type: cell-based, Staphylococcus aureus; conditions: Table 5; STIP3 variants, highest concentration 100 μg/mL
In short: as §1

[8] = system: Mannheimia haemolytica ATCC 33393; assay: MIC, broth dilution; type: cell-based; conditions: Table 11; highest concentration 25 μg/mL
In short: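 Read-out is the lowest peptide concentration showing no growth after an overnight standing culture at 37 °C. Two-fold serial dilutions of 95%-pure peptide were tested against M. haemolytica ATCC 33393 at OD 6×10^−4 in cation-adjusted MH broth.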

C. albicans MYA-2876 = assay: MIC, YPD broth; type: cell-based, Candida albicans; conditions: Table 8
In short: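 Yeast cells were diluted in YPD broth, and 180 μl aliquots were mixed with 20 μl of peptide from 2-fold serial dilutions in flat-bottom 96-well microtitre plates. Wells receiving 20 μl sterile water served as controls. After standing incubation overnight at 37° C, the MIC was taken as the lowest peptide concentration with no visible microbial growth.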

C. albicans Y537 = assay: MIC, YPD broth; type: cell-based, Candida albicans; conditions: Table 8
[9] = system: Candida duobushaemulonii AR 391; assay: MIC, YPD broth, CDC and FDA AR Candida isolate panel; type: cell-based
In short: (§2)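 Peptides of 95% purity were tested as 2-fold dilution series against yeast diluted to an optical density of […]. Cultures stood overnight at 37° C, with sterile water as control.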

[10] = system: Candida duobushaemulonii AR 392; assay: as above; type: cell-based
In short: as §2

[11] = system: Candida duobushaemulonii AR 394; assay: as above; type: cell-based
In short: as §2

Candida krusei AR 397 = assay: as above; type: cell-based
In short: as §2

[12] = system: Candida lusitaniae AR 398; assay: as above; type: cell-based
In short: as §2

Kodamae ohmeri AR 396 = assay: as above; type: cell-based
In short: as §2

[13] = system: Saccharomyces cerevisiae AR 399; assay: as above; type: cell-based
In short: as §2

[14] = system: Saccharomyces cerevisiae AR 400; assay: as above; type: cell-based
In short: as §2

[15] = system: Candida haemulonii AR 393; assay: as above; type: cell-based
In short: as §2

[16] = system: Candida haemulonii AR 395; assay: as above; type: cell-based; conditions: Table 9 below the line: only 200 or 100 μg/mL tested; values reported as 100 are ≤100 μg/mL
In short: as §2

[17] = Table 9 top part: titrations from 1.56 to 100 μg/mL
[18] = Table 9 below the line: only 200 or 100 μg/mL tested, values reported as 100 are ≤100 μg/mL

Substance | MIC S. aureus ATCC 29213 (S. aureus ATCC 29213) [µg/mL] | MIC S. aureus ATCC 33592 (III) [1] [µg/mL] | MIC S. aureus ATCC BAA 1683 (IV) [2] [µg/mL] | MIC S. aureus ATCC BAA 2094 (V) [3] [µg/mL] | MIC S. aureus ATCC BAA 2313 (XI) [4] [µg/mL] | MIC S. aureus ATCC BAA 41 (II) [5] [µg/mL] | MIC S. aureus ATCC BAA 42 (VI) [6] [µg/mL] | MIC S. aureus ATCC BAA 44 (I) [7] [µg/mL] | MIC (μg/mL) M. haemolytica [8] [µg/mL] | MIC C. albicans MYA-2876 (C. albicans MYA-2876) | MIC C. albicans Y537 (C. albicans Y537) | MIC (μg/mL) Candida duobushaemulonii AR 392 [10, 17] | MIC (μg/mL) Candida krusei AR 397 (Candida krusei AR 397; [17]) [µg/mL] | MIC (μg/mL) Candida lusitaniae AR 398 [12, 17] [µg/mL] | MIC (μg/mL) Kodamae ohmeri AR 396 (Kodamae ohmeri AR 396; [17]) | MIC (μg/mL) Saccharomyces cerevisiae AR 400 [14, 17] [µg/mL] | MIC (μg/mL) Candida duobushaemulonii AR 391 [9, 18] | MIC (μg/mL) Candida duobushaemulonii AR 392 [10, 18] | MIC (μg/mL) Candida duobushaemulonii AR 394 [11, 18] | MIC (μg/mL) Candida haemulonii AR 393 [15, 18] | further results
TVKALVKWILKTVAKFA [STIP3-19, TVKALVKWILKTVAKFA] | 50 | 25 | 25 | 25 | 25 | 50 | 50 | 25 | 12.5 | > (> symbol indicates that no inhibition was observed at the highest concentration of peptide tested: 100 μg/mL) | > (> symbol indicates that no inhibition was observed at the highest concentration of peptide tested: 100 μg/mL) | 100 µg/mL | 100 | 50 | > (MIC values reported at the top of the table (above the double line) are based on titrations from 1.56 to 100 μg/mL) | 50 |  |  |  |  | MIC (μg/mL) Candida duobushaemulonii AR 391 [9, 17]: 50 µg/mL; MIC (μg/mL) Candida duobushaemulonii AR 394 [11, 17]: 100 µg/mL; MIC (μg/mL) Saccharomyces cerevisiae AR 399 [13, 17]: 100 µg/mL
TVKGLVKWILNVVKKFA-NH2 [STIP3-30, TVKGLVKWILNVVKKFA-NH2] | 12.5 | 12.5 | 12.5 | 25 | 25 | 25 | 25 | 12.5 | 12.5 | 25 µg/mL | 50 µg/mL | 25 µg/mL | 12.5 | 6.25 | 25 µg/mL | 12.5 |  |  |  |  | MIC (μg/mL) Candida duobushaemulonii AR 391 [9, 17]: 12.5 µg/mL; MIC (μg/mL) Candida duobushaemulonii AR 394 [11, 17]: 25 µg/mL; MIC (μg/mL) Candida haemulonii AR 393 [15, 17]: 100 µg/mL; MIC (μg/mL) Saccharomyces cerevisiae AR 399 [13, 17]: 25 µg/mL
TVGGLVKWILKAVKKFA [STIP3-13, TVGGLVKWILKAVKKFA] | 25 | 25 | 25 | 25 | 25 | 12.5 | 25 | 25 | 12.5 | 50 µg/mL |  |  |  |  |  |  | ≤ 100 µg/mL | ≤ 100 µg/mL | ≤ 100 µg/mL | > (values below the line were determined using two concentrations of peptide 200 or 100 μg/mL) | MIC (μg/mL) Candida haemulonii AR 395 [16]: > (values below the line were determined using two concentrations of peptide 200 or 100 μg/mL); MIC (μg/mL) Candida krusei AR 397 (Candida krusei AR 397; [18]): ≤ 100 µg/mL; MIC (μg/mL) Candida lusitaniae AR 398 [12, 18]: ≤ 100 µg/mL; MIC (μg/mL) Kodamae ohmeri AR 396 (Kodamae ohmeri AR 396; [18]): > (values below the line were determined using two concentrations of peptide 200 or 100 μg/mL); MIC (μg/mL) Saccharomyces cerevisiae AR 399 [13, 18]: ≤ 100 µg/mL; MIC (μg/mL) Saccharomyces cerevisiae AR 400 [14, 18]: ≤ 100 µg/mL
TVGGLVKWILAAVKKFA [STIP3-12, TVGGLVKWILAAVKKFA] | 25 | 25 | 25 | 50 | 25 | 25 | 25 | 25 | 25 | 100 µg/mL |  |  |  |  |  |  | > (values below the line were determined using two concentrations of peptide 200 or 100 μg/mL) | > (values below the line were determined using two concentrations of peptide 200 or 100 μg/mL) | > (values below the line were determined using two concentrations of peptide 200 or 100 μg/mL) | > (values below the line were determined using two concentrations of peptide 200 or 100 μg/mL) | MIC (μg/mL) Candida haemulonii AR 395 [16]: > (values below the line were determined using two concentrations of peptide 200 or 100 μg/mL); MIC (μg/mL) Candida krusei AR 397 (Candida krusei AR 397; [18]): ≤ 100 µg/mL; MIC (μg/mL) Candida lusitaniae AR 398 [12, 18]: ≤ 100 µg/mL; MIC (μg/mL) Kodamae ohmeri AR 396 (Kodamae ohmeri AR 396; [18]): > (values below the line were determined using two concentrations of peptide 200 or 100 μg/mL); MIC (μg/mL) Saccharomyces cerevisiae AR 399 [13, 18]: ≤ 100 µg/mL; MIC (μg/mL) Saccharomyces cerevisiae AR 400 [14, 18]: ≤ 100 µg/mL
TVRALVRWILRTVARFA [STIP3-23, TVRALVRWILRTVARFA] | 25 | 25 | 25 | 50 | 25 | 6.25 | 50 | 25 | 12.5 | > (> symbol indicates that no inhibition was observed at the highest concentration of peptide tested: 100 μg/mL) |  |  |  |  |  |  | > (values below the line were determined using two concentrations of peptide 200 or 100 μg/mL) | > (values below the line were determined using two concentrations of peptide 200 or 100 μg/mL) | > (values below the line were determined using two concentrations of peptide 200 or 100 μg/mL) | > (values below the line were determined using two concentrations of peptide 200 or 100 μg/mL) | MIC (μg/mL) Candida haemulonii AR 395 [16]: > (values below the line were determined using two concentrations of peptide 200 or 100 μg/mL); MIC (μg/mL) Candida krusei AR 397 (Candida krusei AR 397; [18]): > (values below the line were determined using two concentrations of peptide 200 or 100 μg/mL); MIC (μg/mL) Candida lusitaniae AR 398 [12, 18]: ≤ 100 µg/mL; MIC (μg/mL) Kodamae ohmeri AR 396 (Kodamae ohmeri AR 396; [18]): > (values below the line were determined using two concentrations of peptide 200 or 100 μg/mL); MIC (μg/mL) Saccharomyces cerevisiae AR 399 [13, 18]: ≤ 100 µg/mL; MIC (μg/mL) Saccharomyces cerevisiae AR 400 [14, 18]: ≤ 100 µg/mL
TVKALVKWILKTVAKFW [STIP3-21, TVKALVKWILKTVAKFW] | 25 | 25 | 12.5 | 12.5 | 12.5 | 25 | 25 | 25 | 12.5 | > (> symbol indicates that no inhibition was observed at the highest concentration of peptide tested: 100 μg/mL) | > (> symbol indicates that no inhibition was observed at the highest concentration of peptide tested: 100 μg/mL) | > (MIC values reported at the top of the table (above the double line) are based on titrations from 1.56 to 100 μg/mL) | 100 | 50 | > (MIC values reported at the top of the table (above the double line) are based on titrations from 1.56 to 100 μg/mL) | 200 |  |  |  |  | 
